Measurements reported in patent publication US20200404919A1, “USE OF HETEROARYL-TRIAZOLE AND HETEROARYL-TETRAZOLE COMPOUNDS AS PESTICIDES IN PLANT PROTECTION” (Bayer Aktiengesellschaft, priority 2018, published 2020).

Key:
Assay type in all cases: in vivo
[1] = system: Myzus persicae; experiment: Myzus persicae - oral test; settings: 120 h, read-out: mortality in %
How it was run: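 Mixed-population green peach aphids fed through parafilm on compound diluted in water plus IPL41 insect medium (33%+15% sugar). Mortality (%) scored after 5 days, 100% meaning all aphids killed.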

[2] = system: Aphis gossypii; experiment: Aphis gossypii - oral test; settings: 120 h, read-out: mortality in %
How it was run: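 Mixed-population cotton aphids feed through parafilm on compound (acetone stock diluted in water) mixed with IPL41 insect medium containing sugar. Mortality (%) scored after 5 days.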

[3] = system: Tetranychus urticae; experiment: Tetranychus urticae - spray test OP-resistant; settings: foliar, 144 h, French bean leaf disks, all instars, after 6 days
Procedure: Tetranychus urticae—Spray Test OP-Resistant
To produce a suitable preparation of active compound, 1 part by weight of active compound is mixed with the stated amount of solvents and is diluted with water, containing an emulsifier concentration of 1000 ppm, to the desired concentration. Further test concentrations are prepared by dilution with emulsifier containing water.
French bean (Phaseolus vulgaris) leaf disks infected with all instars of the two spotted spidermite (Tetranychus urticae), are sprayed with a preparation of the active ingredient of the desired concentration.
After 6 days mortality in % is determined. 100% means all spider mites have been killed and 0% means none of the spider mites have been killed.

[4] = system: Blattella germanica strain PAULINIA; experiment: Blattella germanica test (BLTTGE surface treatment & contact assay); settings: 30 minutes exposure, 24 hours after contact, read-out: efficacy (mortality in percent); for mortality at 4 mg/m2: surface concentration 4 mg/m^2, glazed tile; for mortality at 20 mg/m2: surface concentration 20 mg/m^2, glazed tile
Procedure: Blattella germanica Test (BLTTGE Surface Treatment & Contact Assay)
(§1) Solvent: Aceton+2000 ppm Rapeseed oil methyl ester (RME)
(§2) In order to produce a sufficient, active ingredient containing solution it is necessary to solve the test-compound in an acetone/RME solvent mixture. This solution is pipetted onto a glazed tile and after evaporation of the acetone, adult animals of the species Blattella germanica strain PAULINIA are placed onto the dried surface. The exposure time is 30 minutes.
(§3) Mortality in percent (%) is determined 24 hours after contact to the treated surface. 100% mortality means that all test-insects are dead, whereas 0% means that not a single insect died.

[5] = system: Diabrotica balteata; experiment: Diabrotica balteata - spray test; settings: 168 h, 160 μg/well, germinated wheat seeds, larvae, after 7 days, read-out: efficacy in %
How it was run: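 Wheat seeds germinated 1 day on agar were sprayed with compound diluted in water with 1000 ppm emulsifier, then infested with 10-20 Diabrotica balteata larvae. Efficacy in % scored after 7 days: 100% = seedlings grown as untreated, uninfected control; 0% = no seedlings grown.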

[6] = system: Aedes aegypti strain MONHEIM; experiment: Aedes test (AEDSAE surface treatment & contact assay); settings: 30 minutes exposure, 24 hours after contact, read-out: efficacy (mortality in percent); for mortality at 4 mg/m2: surface concentration 4 mg/m^2, glazed tile; for mortality at 20 mg/m2: surface concentration 20 mg/m^2, glazed tile
Procedure: Aedes Test (AEDSAE Surface Treatment & Contact Assay)
Solvent: Aceton+2000 ppm rapeseed oil methyl ester (RME)
as §2, with “mosquitoes” for “animals”, “Aedes aegypti” for “Blattella germanica”, “MONHEIM” for “PAULINIA”
as §3

[7] = system: Spodoptera frugiperda; experiment: Spodoptera frugiperda - spray test; settings: in Zea mays, 168 h, read-out: mortality in %
How it was run: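 Maize leaf sections sprayed with compound diluted in water with 1000 ppm emulsifier, then infested with larvae once dry. Mortality (%) scored after 7 days; 100% = all caterpillars killed.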

[8] = system: Culex quinquefasciatus; experiment: Culex test (CULXFAS surface treatment & contact assay); settings: 30 minutes exposure, 24 hours after contact, read-out: efficacy (mortality in percent); for mortality at 4 mg/m2: surface concentration 4 mg/m^2, glazed tile; for mortality at 20 mg/m2: surface concentration 20 mg/m^2, glazed tile
Procedure: Culex Test (CULXFAS Surface Treatment & Contact Assay)
Solvent: Acetone+2000 ppm rapeseed oil methyl ester (RME)
as §2, with “mosquitoes” for “animals”, “Culex quinquefasciatus (Brown house mosquito)” for “Blattella germanica strain PAULINIA”
as §3

[9] = system: Musca domestica strain WHO-N; experiment: Musca domestica test (MUSCDO surface treatment & contact assay); settings: 30 minutes exposure, 24 hours after contact, read-out: efficacy (mortality in percent); for mortality at 4 mg/m2: surface concentration 4 mg/m^2, glazed tile; for mortality at 20 mg/m2: surface concentration 20 mg/m^2, glazed tile
Procedure: Musca domestica Test (MUSCDO Surface Treatment & Contact Assay)
as §1
as §2, with “flies” for “animals”, “Musca domestica” for “Blattella germanica”, “WHO-N” for “PAULINIA”
as §3

[10] = system: Phaedon cochleariae; experiment: Phaedon cochleariae - spray test; settings: in Brassica rapa, foliar, 168 h, read-out: mortality in %
How it was run: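 Chinese cabbage leaf disks sprayed with compound diluted in water containing 1000 ppm emulsifier, then infested with mustard beetle larvae once dry. Mortality in % scored after 7 days (100% = all larvae killed, 0% = none).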

[11] = system: Nilaparvata lugens; experiment: Nilaparvata lugens - spray test 1; settings: in Oryza sativa, 96 h, read-out: mortality in %, 500 g/ha, rice plants, after 4 days
How it was run: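 Rice plants (Oryza sativa) were sprayed with the compound preparation in water containing 1000 ppm emulsifier, then infested with brown planthoppers. Percent mortality scored after 4 days (100% = all killed, 0% = none).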

[12] = system: Nezara viridula; experiment: Nezara viridula - spray test 1; settings: in Hordeum vulgare, 96 h, read-out: mortality in %
How it was run: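 Barley plants carrying southern green stink bug larvae were sprayed with compound diluted in water with 1000 ppm emulsifier. Mortality (%) was scored after 4 days.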

[13] = system: Meloidogyne incognita; experiment: Meloidogyne incognita - test; settings: 336 h, salad seedlings in sand, after 14 days, read-out: nematicidal activity (percentage of gall formation)
Procedure: Meloidogyne incognita—Test
Solvent: 125.0 parts by weight of acetone
To produce a suitable preparation of active compound, 1 part by weight of active compound is mixed with the stated amount of solvent, and the concentrate is diluted with water to the desired concentration.
Vessels are filled with sand, a solution of the active ingredient, a suspension containing eggs and larvae of the southern root-knot nematode (Meloidogyne incognita) and salad seeds. The salad seeds germinate and the seedlings grow. Galls develop in the roots.
After 14 days the nematicidal activity is determined on the basis of the percentage of gall formation. 100% means no galls were found and 0% means the number of galls found on the roots of the treated plants was equal to that in untreated control plants.

Row | Structure (SMILES) | mortality at 20 ppm [1] [%] | mortality at 100 ppm [2] [%] | mortality at 500 g/ha [3] [%] | mortality at 4 mg/m2 [4] [%] | mortality at 20 mg/m2 [4] [%] | pest or weed control at 160 µg/disc, 160 µg/well [5] [%] | mortality at 4 mg/m2 [6] [%] | mortality at 20 mg/m2 [6] [%] | mortality at 500 g/ha [7] [%] | mortality at 4 mg/m2 [8] [%] | mortality at 20 mg/m2 [8] [%] | mortality at 4 mg/m2 [9] [%] | mortality at 20 mg/m2 [9] [%] | mortality at 500 g/ha [10] [%] | mortality at 500 g/ha [11] [%] | mortality at 500 g/ha [12] [%] | pest or weed control at 20 ppm [13] [%]
1 | CC(c1ncnn1-c1ncccn1)N(CC1CC1)C(=O)c1cc(Cl)cc(OC(F)(F)F)c1 (stereo not shown) [Compound I-37, 3-chloro-N-(cyclopropylmethyl)-N-[1-(2-pyrimidin-2-yl-1,2,4-triazol-3-yl)ethyl]-5-(trifluoromethoxy)benzamide] | 100 | 100 | 90 | 80 to 100 | 80 to 100 | 100 | 80 to 100 | 80 to 100 | 100 | 80 to 100 | 80 to 100 | 80 to 100 | 80 to 100 | 100 | 100 | 100 | 
2 | C#CCN(C(=O)c1cc(Cl)cc(C(F)(F)F)c1)C(C)c1ncnn1-c1ncccn1 (stereo not shown) [Compound I-41, 3-chloro-N-prop-2-ynyl-N-[1-(2-pyrimidin-2-yl-1,2,4-triazol-3-yl)ethyl]-5-(trifluoromethyl)benzamide] | 100 | 100 | 90 |  |  | 100 |  |  | 100 |  |  |  |  | 100 | 100 | 100 | 
3 | CC(c1ncnn1-c1ncccn1)N(CC1CC1)C(=O)c1cc(C(F)(F)F)cc(C(F)(F)F)c1 (stereo not shown) [Compound I-48, N-(cyclopropylmethyl)-N-[1-(2-pyrimidin-2-yl-1,2,4-triazol-3-yl)ethyl]-3,5-bis(trifluoromethyl)benzamide] | 100 | 100 |  | 80 to 100 | 80 to 100 | 100 | 80 to 100 | 80 to 100 | 100 | 80 to 100 | 80 to 100 | 80 to 100 | 80 to 100 | 100 | 100 | 100 | 100
4 | CC(c1ncnn1-c1ncc(F)cn1)N(CC1CC1)C(=O)c1cc(Cl)cc(C(F)(F)F)c1 (stereo not shown) [Compound I-81, 3-chloro-N-(cyclopropylmethyl)-N-[1-[2-(5-fluoropyrimidin-2-yl)-1,2,4-triazol-3-yl]ethyl]-5-(trifluoromethyl)benzamide] | 100 | 100 | 80 | 80 to 100 | 80 to 100 | 100 | 80 to 100 | 80 to 100 | 100 | 80 to 100 | 80 to 100 | 80 to 100 | 80 to 100 | 100 | 100 | 100 | 
5 | CC(c1ncnn1-c1nccc(C(F)(F)F)n1)N(CC1CC1)C(=O)c1cc(Cl)cc(C(F)(F)F)c1 (stereo not shown) [Compound I-82] | 100 | 100 | 80 |  |  | 100 |  |  | 100 |  |  |  |  | 100 | 100 | 100 | 100
6 | CC(c1ncnn1-c1ncccn1)N(CC1CC1)C(=O)c1cccc(SC(F)(F)F)c1 (stereo not shown) [Compound I-83] | 100 | 100 | 100 |  |  | 100 |  |  | 83 |  |  |  |  | 100 | 100 | 100 | 
7 | CC(c1ncnn1-c1ncccn1)N(CC1CC1)C(=O)c1cc(Cl)cc(Cl)c1 (stereo not shown) [Compound I-95] | 100 | 100 |  |  |  | 100 |  |  | 100 |  |  |  |  | 100 | 90 | 100 | 90
8 | CCN(C(=O)c1cc(Cl)cc(C(F)(F)F)c1)C(C)c1ncnn1-c1ncccn1 (stereo not shown) [Compound I-97, 3-chloro-N-ethyl-N-[1-(2-pyrimidin-2-yl-1,2,4-triazol-3-yl)ethyl]-5-(trifluoromethyl)benzamide] | 100 | 100 | 80 |  |  | 100 |  |  | 100 |  |  |  |  | 100 | 100 | 100 | 
9 | CC(c1ncnn1-c1ncccn1)N(CC1CC1)C(=O)c1cc(Cl)cc(SC(F)(F)F)c1 (stereo not shown) [Compound I-107, 3-chloro-N-(cyclopropylmethyl)-N-[1-(2-pyrimidin-2-yl-1,2,4-triazol-3-yl)ethyl]-5-(trifluoromethylsulfanyl)benzamide] | 100 | 100 |  |  |  | 100 |  |  | 100 |  |  |  |  | 100 | 100 | 100 | 90
10 | CC(c1ncnn1-c1ccncn1)N(CC1CC1)C(=O)c1cc(Cl)cc(C(F)(F)F)c1 (stereo not shown) [Compound I-110] | 100 | 100 | 95 |  |  | 100 |  |  | 100 |  |  |  |  | 100 | 100 | 100 | 
11 | CC(c1ncnn1-c1cncnc1)N(CC1CC1)C(=O)c1cc(Cl)cc(C(F)(F)F)c1 (stereo not shown) [Compound I-112] |  |  | 90 |  |  | 100 |  |  |  |  |  |  |  |  |  |  | 
12 | C[C@H](NC(=O)c1cc(Cl)cc(C(F)(F)F)c1)c1ncnn1-c1ncccc1Cl [Compound I-116] | 90 | 100 | 95 |  |  | 100 |  |  | 100 |  |  |  |  | 100 | 100 | 100 | 
